Results from patent US8796416B1, “ACTH prophylactic treatment of renal disorders” (Questcor Pharmaceuticals, Inc, priority 2010, dated 2014).

Tested on: melanocortin receptor
Assay: Melanocortin receptor modulation by ACTH1-39 (applicants' finding, no method given)

melanocortin receptor modulation: pan-melanocortin receptor modulator
Substance: H-Ser-Tyr-Ser-Met-Glu-His-Phe-Arg-Trp-Gly-Lys-Pro-Val-Gly-Lys-Lys-Arg-Arg-Pro-Val-Lys-Val-Tyr-Pro-Asp-Gly-Ala-Glu-Asp-Gln-Leu-Ala-Glu-Ala-Phe-Pro-Leu-Glu-Phe-OH (H-SYSMEHFRWGKPVGKKRRPVKVYPDGAEDQLAEAFPLEF-OH) [ACTH1-39]
